Laboratory results taken from patent US6989158B1, “Gold-containing chemotherapeutic agents” (The Curators of the University of Missouri, priority 1999, dated 2006).

Key:
[1] = tested on: interperitoneal P388 leukemia; details: in vivo; cited from earlier work
[2] = Deaths of tumor bearing mice at larger doses; type: in vivo; details: doses significantly larger than in the table (20–25 μg/kg)
Meth/A cells = experiment: In vivo study, survival of Meth/A tumor bearing mice; set-up: species or system Balb/C mice
[3] = tested on: cells derived from human colon carcinoma; experiment: in vitro tumor growth suppression, cells derived from human colon carcinoma; type: cell-based; details: specific human cancer cell lines
Text: When the non-radioactive analogue of the gold complex of THP [(Au(THP)4)]

[4] = Side effects in mice models; type: in vivo; details: preliminary findings
HCT-15 cells = experiment: Histogram (cell cycle) studies; type: cell-based; details: 200 or 40 μg/ml, two days incubation
Procedure: Histogram studies were carried out using HCT-15 cells. In the enclosed figure that summarize histogram results the cells are numbered as follows: HCT-80 is the control; HCT-81 refers to a sample with 200 μg/ml of the gold compound; HCT-82 refers to a sample with 40 μg/ml of gold compound.
HCT-15 cells were incubated in 5% CO2 incubator for two days. Then the cells were harvested and analyzed using fluorescent techniques. […] This finding is in sharp contrast to he cytotoxic side effects of cisplatin which is known to cause disassociation of many phases. Additionally, most agents which are cytotoxic, block S or M+G2 phase after culturing for two days. The mode of cell suppression via G1 phase elongation, as observed for the gold compound, therefore functions differently.

peritoneal cancer cells = details: in vivo; cited from earlier work
solid tumor models = details: in vivo; cited from earlier work
[5] = in vivo; cited from earlier work

CC[PH](CC)(CC)[Au][S][C@@H]1O[C@H](COC(C)=O)[C@@H](OC(C)=O)[C@H](OC(C)=O)[C@H]1OC(C)=O [Auranofin, (2,3,4,6-tetra-O-aceytl-1-thio-β-D-glucopyranosato-S)-(triethylphosphine) gold(I)]
activity against interperitoneal P388 leukemia [1]: active

N.N.[Cl][Pt][Cl] [Cisplatin, cisplatin]
deaths of tumor bearing mice [2]: resulted in the death of animals

OCP(CO)CO.OCP(CO)CO.OCP(CO)CO.OCP(CO)CO.[Au+].[Cl-] [[Au(THP)4]Cl]
deaths of tumor bearing mice [2]: did not result in deaths of tumor bearing mice
survival of tumor bearing mice (Meth/A cells): remarkable survival of tumor bearing mice
tumor cell suppression [3]: remarkable activity in suppressing tumor growth
toxic side effects [4]: no toxic cardiovascular or naphrotoxic side effects
effect on G1 phase of the cell cycle (HCT-15 cells): elongates G1 phase

[Au+].[Cl-].c1ccc(P(CCP(c2ccccc2)c2ccccc2)c2ccccc2)cc1.c1ccc(P(CCP(c2ccccc2)c2ccccc2)c2ccccc2)cc1 [[Au(dppe)2]Cl]
activity against peritoneal cancer cells (peritoneal cancer cells): marked activity
activity against solid tumor models (solid tumor models): only slightly active
toxicity in preclinical toxicology studies [5]: cardiotoxicity
